Laboratory results from paper PMC9250534, “Synthesis and direct assay of large macrocycle diversities by combinatorial late-stage modification at picomole scale” (Nature Communications, 2022).

Biological target: MDM2 (Homo sapiens, UniProt Q00987)
Experiment: MDM2 binding screen of Libraries 3 and 4: displacement of fluorescent probe F-M8 at 750 nM macrocycle
Summary of the method: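 Cyclic peptide scaffolds were acylated in DMSO with carboxylic acids (20 equiv.), HBTU and DABCO for 6 h at room temperature. Reactions were quenched overnight in 100 mM Tris-Cl pH 7.4, 0.01% Tween20. The fluorescein conjugate was also competed with nutlin-3a.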

[1] = Panel b, Library 3: 63 scaffolds combinatorially acylated with 15 carboxylic acids at 30 picomole scale, displacement of fluorescent peptide probe, macrocycle 750 nM
[2] = Panel c, Library 4: best nine scaffolds and 15 additional carboxylic acids, displacement of fluorescent probe

MDM2, sequence (Q00987 whole entry): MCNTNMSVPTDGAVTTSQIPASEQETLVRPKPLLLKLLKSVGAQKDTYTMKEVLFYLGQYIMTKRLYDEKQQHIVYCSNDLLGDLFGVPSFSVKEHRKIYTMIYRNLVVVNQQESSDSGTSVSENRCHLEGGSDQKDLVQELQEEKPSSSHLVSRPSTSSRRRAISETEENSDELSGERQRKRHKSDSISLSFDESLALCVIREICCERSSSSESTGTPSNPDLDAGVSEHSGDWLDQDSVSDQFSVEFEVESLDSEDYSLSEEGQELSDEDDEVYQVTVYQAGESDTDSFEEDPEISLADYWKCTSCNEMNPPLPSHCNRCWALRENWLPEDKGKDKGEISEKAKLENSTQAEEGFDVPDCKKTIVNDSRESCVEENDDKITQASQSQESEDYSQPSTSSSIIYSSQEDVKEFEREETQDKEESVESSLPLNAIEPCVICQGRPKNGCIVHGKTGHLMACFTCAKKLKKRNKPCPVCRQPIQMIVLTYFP

Structure (SMILES)	fraction of fluorescent probe displaced [1]	fraction of fluorescent probe displaced [2]
CC(Oc1cccc(Cl)c1)C(=O)NCC1NC(=O)C2CN(CCO2)C(=O)CCSSCCNC(=O)C(Cc2c[nH]c3ccccc23)NC1=O [X-Cop-D-Dap-D-Trp + Acid 113]	0.008	
CCOc1ccc(C=CC(=O)NCC2NC(=O)C3CN(CCO3)C(=O)CCSSCCNC(=O)C(Cc3c[nH]c4ccccc34)NC2=O)cc1 (stereo not drawn) [X-Cop-Dap-Trp + Acid 117]		0.199
CN1C(=O)C(CNC(=O)C2CC2c2ccccc2)NC(=O)C2CN(CCO2)C(=O)CCSSCCNC(=O)C1Cc1c[nH]c2ccccc12 (stereo not drawn) [X-Cop-Dap-NMe-Trp + Acid 105]	0.018	
O=C(/C=C/c1ccc(Cl)cc1)NC[C@@H]1NC(=O)[C@H]2CCCN(C2)C(=O)CCSSCCNC(=O)[C@H](Cc2cccc3ccccc23)NC1=O [X-Nip-Dap-1-NaI + Acid 108]	0.041	
Cn1cc(C[C@@H]2NC(=O)[C@@H](CNC(=O)c3ccc(Cl)s3)NC(=O)[C@@H]3CN(CCO3)C(=O)CCSSCCNC2=O)c2ccccc21 [X-Cop-D-Dap-Me-Trp + Acid 14]	-0.00533	
O=C(CCS(=O)(=O)c1ccccc1)NC[C@@H]1NC(=O)[C@@H]2CN(CCO2)C(=O)CCSSCCNC(=O)[C@H](Cc2cccc3ccccc23)NC1=O [X-Cop-Dap-1-NaI + Acid 114]	0.021	
O=C(NC[C@H]1NC(=O)[C@H]2CCCN(C2)C(=O)CCSSCCNC(=O)[C@@H](Cc2c[nH]c3ccccc23)NC1=O)c1ccc2ccccc2c1 [X-Nip-D-Dap-D-Trp + Acid 107]	0.050	
CC(Oc1cccc(Cl)c1)C(=O)NCC1NC(=O)C2(CC2)CNC(=O)CCSSCCNC(=O)C(Cc2c[nH]c3ccccc23)NC1=O (mixture of isomers) [X-Amcp-Dap-Trp + Acid 113]	0.00133	
O=C1CCSSCCNC(=O)[C@H](Cc2cccc3ccccc23)NC(=O)CN(CCNC(=O)c2ccc3ccccc3c2)C(=O)C2(CC2)CN1 [X-Amcp-N-Aeg-1-NaI + Acid 107]	0.011	
O=C(/C=C/c1ccc(OCc2ccccc2)cc1)NC[C@@H]1NC(=O)C2(CC2)CNC(=O)CCSSCCNC(=O)[C@H](Cc2ccc3ccccc3c2)NC1=O [X-Amcp-Dap-2-Nal + Acid 110]	0.041	
CC(C)c1ccc(/C=C/C(=O)NC[C@@H]2NC(=O)[C@H]3CCCN(C3)C(=O)CCSSCCNC(=O)[C@H](Cc3cccc4ccccc34)NC2=O)cc1 [X-Nip-Dap-1-NaI + Acid 127]		0.0035
O=C(NCC1NC(=O)C2CN(CCO2)C(=O)CCSSCCNC(=O)C(Cc2cccc3ccccc23)NC1=O)c1cccc(Oc2ccccc2)c1 [X-Cop-D-Dap-1-NaI + Acid 111]	0.008	
CC(Oc1cccc(Cl)c1)C(=O)NC[C@H]1NC(=O)[C@@H]2CN(CCO2)C(=O)CCSSCCNC(=O)[C@H](Cc2cccc3ccccc23)NC1=O (stereo partly drawn) [X-Cop-D-Dap-1-NaI + Acid 113]	0.008	
O=C(/C=C/c1ccc(OCc2ccccc2)cc1)NCCN1CC(=O)N[C@@H](Cc2c[nH]c3cc(Cl)ccc23)C(=O)NCCSSCCC(=O)NCC2(CC2)C1=O [X-Amcp-N-Aeg-Cl-Trp + Acid 110]	0.015	
CC(Oc1cccc(Cl)c1)C(=O)NCC1NC(=O)C2(CC2)CNC(=O)CCSSCCNC(=O)C(Cc2c[nH]c3ccccc23)NC1=O (mixture of isomers) [X-Amcp-Dap-D-Trp + Acid 113]	-0.012	
Cn1cc(C[C@@H]2NC(=O)[C@H](CNC(=O)c3cnc4ccccc4n3)NC(=O)[C@H]3CCCN(C3)C(=O)CCSSCCNC2=O)c2ccccc21 [X-Nip-Dap-Me-Trp + Acid 130]		-0.00464
O=C(/C=C/c1ccc(OCc2ccccc2)cc1)NC[C@H]1NC(=O)[C@@H]2CN(CCO2)C(=O)CCSSCCNC(=O)[C@@H](Cc2c[nH]c3ccccc23)NC1=O [X-Cop-D-Dap-D-Trp + Acid 110]	0.015	
O=C1CCSSCCNC(=O)[C@H](Cc2ccc3ccccc3c2)NC(=O)[C@@H](CNC(=O)c2cccc(Oc3ccccc3)c2)NC(=O)C2(CC2)CN1 [X-Amcp-D-Dap-2-Nal + Acid 111]	-0.00533	

Structure (SMILES)	fraction of fluorescent probe displaced [1]	fraction of fluorescent probe displaced [2]
Cn1cc(C[C@@H]2NC(=O)CN(CCNC(=O)c3ccc(Cl)s3)C(=O)C3(CC3)CNC(=O)CCSSCCNC2=O)c2ccccc21 [X-Amcp-N-Aeg-Me-Trp + Acid 14]	-0.00533	
O=C(CCS(=O)(=O)c1ccccc1)NC[C@H]1NC(=O)[C@@H]2CN(CCO2)C(=O)CCSSCCNC(=O)[C@H](Cc2cccc3ccccc23)NC1=O [X-Cop-D-Dap-1-NaI + Acid 114]	0.008	
O=C1CCSSCCNC(=O)[C@@H](Cc2c[nH]c3ccccc23)NC(=O)[C@@H](CNC(=O)c2ccc3ccccc3c2)NC(=O)C2(CC2)CN1 [X-Amcp-D-Dap-D-Trp + Acid 107]	0.031	
CC(=Cc1ccccc1)C(=O)O [Acid 123]		-0.00464
O=C1CN(CCNC(=O)c2cccc(Oc3ccccc3)c2)C(=O)[C@H]2CCCN(C2)C(=O)CCSSCCNC(=O)[C@H](Cc2ccc3ccccc3c2)N1 [X-Nip-N-Aeg-2-Nal + Acid 111]	0.00133	
CC(Oc1cccc(Cl)c1)C(=O)NC[C@H]1NC(=O)[C@H]2CCCN(C2)C(=O)CCSSCCNC(=O)[C@H](Cc2c[nH]c3cc(Cl)ccc23)NC1=O (stereo partly drawn) [X-Nip-D-Dap-Cl-Trp + Acid 113]	-0.00533	
O=C(/C=C/c1ccc2ccccc2c1)NCCN1CC(=O)N[C@@H](Cc2cccc3ccccc23)C(=O)NCCSSCCC(=O)N2CCC[C@@H](C2)C1=O [X-Nip-N-Aeg-1-NaI + Acid 112]	0.015	
O=C1CN(CCNC(=O)c2ccc(Cl)s2)C(=O)C2CN(CCO2)C(=O)CCSSCCNC(=O)C(Cc2ccc3ccccc3c2)N1 (centres unmarked) [X-Cop-N-Aeg-2-Nal + Acid 14]	-0.019	
O=C(CCS(=O)(=O)c1ccccc1)NC[C@H]1NC(=O)[C@H]2CCCN(C2)C(=O)CCSSCCNC(=O)[C@H](Cc2c[nH]c3ccccc23)NC1=O [X-Nip-D-Dap-Trp + Acid 114]	-0.00533	
O=C(NC[C@@H]1NC(=O)[C@@H]2CN(CCO2)C(=O)CCSSCCNC(=O)[C@H](Cc2ccc3ccccc3c2)NC1=O)c1ccc(Cl)cc1 [X-Cop-Dap-2-Nal + Acid 25]	0.041	
O=C(/C=C/c1ccc2ccccc2c1)NC[C@@H]1NC(=O)C2(CC2)CNC(=O)CCSSCCNC(=O)[C@H](Cc2c[nH]c3cc(Cl)ccc23)NC1=O [X-Amcp-Dap-Cl-Trp + Acid 112]	0.008	
O=C(/C=C/c1ccc(OCc2ccccc2)cc1)NC[C@@H]1NC(=O)[C@H]2CCCN(C2)C(=O)CCSSCCNC(=O)[C@H](Cc2ccc3ccccc3c2)NC1=O [X-Nip-Dap-2-Nal + Acid 110]	0.021	
O=C(/C=C/c1ccc(Cl)cc1)NC[C@H]1NC(=O)[C@@H]2CN(CCO2)C(=O)CCSSCCNC(=O)[C@H](Cc2cccc3ccccc23)NC1=O [X-Cop-D-Dap-1-NaI + Acid 108]	0.028	
O=C1CCSSCCNC(=O)[C@H](Cc2c[nH]c3ccccc23)NC(=O)[C@H](CNC(=O)c2ccc(Cl)s2)NC(=O)C2(CC2)CN1 [X-Amcp-Dap-Trp + Acid 14]	0.008	
Cn1cc(C[C@@H]2NC(=O)[C@H](CNC(=O)C3COc4ccccc4O3)NC(=O)[C@H]3CCCN(C3)C(=O)CCSSCCNC2=O)c2ccccc21 (stereo partly drawn) [X-Nip-Dap-Me-Trp + Acid 115]	0.028	
O=C(/C=C/c1ccc(Cl)cc1)NC[C@@H]1NC(=O)C2(CC2)CNC(=O)CCSSCCNC(=O)[C@H](Cc2c[nH]c3ccccc23)NC1=O [X-Amcp-Dap-Trp + Acid 108]	0.068	
O=C(CCS(=O)(=O)c1ccccc1)NC[C@@H]1NC(=O)[C@@H]2CN(CCO2)C(=O)CCSSCCNC(=O)[C@H](Cc2c[nH]c3cc(Cl)ccc23)NC1=O [X-Cop-Dap-Cl-Trp + Acid 114]	-0.039	
